Measurements reported in patent US20230192701A1, “BICYCLIC KINASE INHIBITORS AND USES THEREOF” (iOmx Therapeutics AG, priority 2020, published 2023).
pIC50: −log10 of the molar value.

Experiments:
SIK2 = SIK2 (Homo sapiens, UniProt Q9H0K1); assay: radiometric protein kinase assay (33PanQinase Activity Assay), SIK2; format: biochemical; conditions: for IC50: ATP 1.0 μM, substrate RBER-CHKtide; for inhibiting SIK2 compared to PY1: in words
Protocol: (§1) The IC50s of the compounds against the SIK family of protein-serine/threonine kinases (SIK2 and SIK3) were determined as followed. Briefly, a radiometric protein kinase assay (33PanQinase® Activity Assay) was used for measuring the kinase activity of the two protein kinases. The kinase assays were performed in 96-well FlashPlates™ from PerkinElmer (Boston, Mass., USA) in a 50 uL reaction volume. The reaction cocktail was pipetted in four steps in the following order: • […] (standard buffer/[gamma-33P]-ATP) • 10 uL of ATP solution (in water) • 5 uL of test compound (in 10% DMSO) • 20 uL enzyme/substrate mix
(§2) The following amounts of enzyme and applicable substrate were used per well:
(§3) The reaction cocktails were incubated at 30 °C for 60 minutes. The reaction was stopped with 50 uL of 2% (v/v) H3PO4, plates were aspirated and washed two times with 200 μL 0.9% (w/v) NaCl. Incorporation of 33Pi was determined with a microplate scintillation counter (Microbeta, Wallac). All assays were performed with a BeckmanCoulter/SAGIAN™ Core System.

SIK3 = SIK3 (Homo sapiens, UniProt Q9Y2K2); assay: radiometric protein kinase assay (33PanQinase Activity Assay), SIK3; format: biochemical; conditions: for IC50: ATP 1.0 μM, substrate RBER-CHKtide
Protocol: as §1, §2, §3

HCT116 tumour cells = assay: TNF-sensitised cell viability assay (CellTiter-Glo), HCT116; format: cell-based, human; conditions: for pIC50: Homo sapiens, HCT-116, read-out: HCT116 IC50 (at 10 ng/ml rHuTNF), 10 ng/ml rHuTNF, 72 h; for sensitisation of HCT116 tumour cells to the cytotoxic effect of TNF compared to PY1: in words
Protocol: (§4) Cell viability of HCT116 tumour cells was measured using the CellTiter-Glo (CTG) luminescent cell viability assay (Promega, Madison, USA) according to the manufacturer's protocol. In short, 1×10^3 HCT116 cells were seeded in a 384-well plate for 24 h and subsequently treated with different concentrations of compounds and 10 ng/ml rHuTNF for 72 h at 37° C. and 5% CO2. After incubation, CTG reagent was added to the wells and cells were lysed for 10 min. Read-out was performed using the Tecan reader with 0.1 sec counting time. TNF-induced cell killing in human PANC1 and murine MC38 tumour cells was measured analogously to the assay in human HCT116 cells, except that for the PANC1 assay 100 ng/ml rHuTNF and for the MC38 assay 100 ng/ml rMuTNF were used.

PANC1 tumour cells = assay: TNF-sensitised cell viability assay (CellTiter-Glo), PANC1; format: cell-based, human; conditions: for pIC50: Homo sapiens, PANC-1, read-out: PANC IC50 (at 100 ng/ml rHuTNF), 100 ng/ml rHuTNF, 72 h; for sensitisation of PANC tumour cells to the cytotoxic effects of TNF compared to PY1: in words
Protocol: as §4

MC38 tumour cells = assay: TNF-sensitised cell viability assay (CellTiter-Glo), MC38; format: cell-based, murine; conditions: for pIC50: Mus musculus, MC-38, read-out: MC38 IC50 (at 100 ng/ml rMuTNF), 100 ng/ml rMuTNF, 72 h
Protocol: as §4

SIK3, sequence (Q9Y2K2 whole entry): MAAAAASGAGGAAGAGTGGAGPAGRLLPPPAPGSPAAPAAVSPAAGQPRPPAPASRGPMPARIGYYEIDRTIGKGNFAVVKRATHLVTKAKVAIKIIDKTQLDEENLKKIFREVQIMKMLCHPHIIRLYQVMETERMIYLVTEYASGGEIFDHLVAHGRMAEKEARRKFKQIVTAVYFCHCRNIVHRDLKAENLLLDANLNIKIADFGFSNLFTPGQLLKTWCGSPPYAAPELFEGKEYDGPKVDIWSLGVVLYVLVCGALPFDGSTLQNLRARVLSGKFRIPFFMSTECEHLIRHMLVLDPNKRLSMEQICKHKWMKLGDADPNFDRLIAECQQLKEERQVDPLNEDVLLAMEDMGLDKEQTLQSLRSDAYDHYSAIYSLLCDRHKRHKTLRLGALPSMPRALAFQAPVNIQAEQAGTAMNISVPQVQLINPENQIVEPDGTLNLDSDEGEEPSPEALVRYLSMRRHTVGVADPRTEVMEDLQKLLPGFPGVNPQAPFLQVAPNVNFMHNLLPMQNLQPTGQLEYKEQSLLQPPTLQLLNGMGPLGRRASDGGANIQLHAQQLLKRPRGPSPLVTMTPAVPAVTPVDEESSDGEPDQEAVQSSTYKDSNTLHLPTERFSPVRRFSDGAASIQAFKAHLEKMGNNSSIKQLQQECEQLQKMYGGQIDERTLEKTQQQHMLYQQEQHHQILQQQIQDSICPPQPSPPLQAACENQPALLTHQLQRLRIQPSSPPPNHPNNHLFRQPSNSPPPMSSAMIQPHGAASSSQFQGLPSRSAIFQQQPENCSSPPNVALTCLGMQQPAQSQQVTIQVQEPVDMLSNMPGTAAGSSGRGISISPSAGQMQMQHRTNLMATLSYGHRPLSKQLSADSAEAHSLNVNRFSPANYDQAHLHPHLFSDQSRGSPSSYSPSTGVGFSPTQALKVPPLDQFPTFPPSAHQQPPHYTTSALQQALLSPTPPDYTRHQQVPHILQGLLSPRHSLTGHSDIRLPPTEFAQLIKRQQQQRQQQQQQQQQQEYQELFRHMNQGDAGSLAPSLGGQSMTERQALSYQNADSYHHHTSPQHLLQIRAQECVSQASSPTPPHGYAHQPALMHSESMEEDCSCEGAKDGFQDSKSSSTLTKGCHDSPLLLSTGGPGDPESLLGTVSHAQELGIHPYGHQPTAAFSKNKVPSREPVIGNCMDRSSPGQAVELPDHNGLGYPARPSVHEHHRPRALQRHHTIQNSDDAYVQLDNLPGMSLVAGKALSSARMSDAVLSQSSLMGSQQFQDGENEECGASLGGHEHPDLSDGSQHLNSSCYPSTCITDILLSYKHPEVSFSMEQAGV
SIK2, sequence (Q9H0K1 whole entry): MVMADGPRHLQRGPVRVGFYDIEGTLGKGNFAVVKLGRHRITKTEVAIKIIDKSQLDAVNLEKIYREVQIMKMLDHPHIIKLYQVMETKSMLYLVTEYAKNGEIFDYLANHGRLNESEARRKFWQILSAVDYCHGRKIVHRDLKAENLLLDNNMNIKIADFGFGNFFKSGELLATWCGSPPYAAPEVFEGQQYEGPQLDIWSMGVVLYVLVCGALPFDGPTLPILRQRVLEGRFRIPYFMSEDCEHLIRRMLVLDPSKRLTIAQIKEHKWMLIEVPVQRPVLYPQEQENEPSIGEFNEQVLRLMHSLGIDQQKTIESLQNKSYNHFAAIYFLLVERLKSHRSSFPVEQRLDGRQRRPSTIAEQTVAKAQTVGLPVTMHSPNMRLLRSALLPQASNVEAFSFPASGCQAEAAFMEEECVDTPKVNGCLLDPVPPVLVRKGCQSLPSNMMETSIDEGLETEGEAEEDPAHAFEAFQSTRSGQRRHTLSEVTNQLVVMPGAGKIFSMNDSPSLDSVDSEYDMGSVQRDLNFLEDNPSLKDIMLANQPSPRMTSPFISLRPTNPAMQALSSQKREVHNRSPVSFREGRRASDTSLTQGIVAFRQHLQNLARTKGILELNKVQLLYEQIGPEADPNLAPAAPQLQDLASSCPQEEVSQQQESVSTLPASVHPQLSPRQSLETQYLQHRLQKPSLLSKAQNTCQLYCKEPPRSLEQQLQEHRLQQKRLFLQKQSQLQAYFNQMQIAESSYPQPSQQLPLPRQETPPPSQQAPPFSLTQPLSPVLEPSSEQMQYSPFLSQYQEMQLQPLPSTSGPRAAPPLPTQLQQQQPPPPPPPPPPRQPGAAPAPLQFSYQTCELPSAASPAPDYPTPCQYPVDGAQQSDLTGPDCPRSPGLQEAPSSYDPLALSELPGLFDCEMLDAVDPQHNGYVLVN

Structure (SMILES) | IC50 (SIK2) [nM] | IC50 (SIK3) [nM] | pIC50 (HCT116 tumour cells) | sensitisation of HCT116 tumour cells to the cytotoxic effect of TNF compared to PY1 (HCT116 tumour cells) | pIC50 (PANC1 tumour cells) | sensitisation of PANC tumour cells to the cytotoxic effects of TNF compared to PY1 (PANC1 tumour cells) | pIC50 (MC38 tumour cells) | sensitisation of MC38 tumour cells to the cytotoxic effect of TNF (MC38 tumour cells; in words) | inhibiting SIK2 compared to PY1 (SIK2) | inhibiting SIK3 compared to PY1 (SIK3; in words) | selectivity towards SIK3 over SIK2 (SIK3; in words)
COc1ccc(N2C(=O)N(c3c(CF)csc3Cl)Cc3cnc(Nc4ccc(C5CCN(C)CC5)cc4OC)nc32)nc1 [AA7, 3-(2-chloro-4-(fluoromethyl)thiophen-3-yl)-7-((2-methoxy-4-(l-methylpiperidin-4-yl)phenyl)amino)-1-(5-methoxypyridin-2-yl)-3,4-dihydropyrimido[4,5-d]pyrimidin-2(1H)-one] | 50 to 100 | 100 to 200 | > 7.00 | much stronger effect compared to the prior art compound PY1 | 6.30 to 7.00 | stronger effect than PY1 | 6.30 to 7.00 | surprisingly potent at sensitising cells to the cytotoxic effect of TNF |  |  | 
COc1ccc(N2C(=O)N(c3c(CF)csc3Cl)Cc3cnc(Nc4ccc(C5CCN(C)C(C)C5)cc4)nc32)nc1 (stereo not drawn) [AA9, 3-(2-chloro-4-(fluoromethyl)thiophen-3-yl)-7-((4-(l,2-dimethylpiperidin-4-yl)phenyl)amino)-1-(5-methoxypyridin-2-yl)-3,4-dihydropyrimido[4,5-d]pyrimidin-2(1H)-one] | < 50 | < 50 | > 7.00 | much stronger effect compared to the prior art compound PY1 | 6.00 to 6.30 |  | 6.00 to 6.30 |  | superior in inhibiting SIK2 and SIK3 compared to PY1 | superior in inhibiting SIK2 and SIK3 compared to PY1 | 
COc1ccc(N2C(=O)N(c3c(CF)csc3Cl)Cc3cnc(Nc4ccc(C5CC(C)N(C)C(C)C5)cc4)nc32)nc1 (stereo not drawn) [AA8, 3-(2-chloro-4-(fluoromethyl)thiophen-3-yl)-1-(5-methoxypyridin-2-yl)-7-((4-(l,2,6-trimethylpiperidin-4-yl)phenyl)amino)-3,4-dihydropyrimido[4,5-d]pyrimidin-2(lH)-one] | < 50 | < 50 | > 7.00 | much stronger effect compared to the prior art compound PY1 | 6.30 to 7.00 | stronger effect than PY1 | 6.00 to 6.30 |  | superior in inhibiting SIK2 and SIK3 compared to PY1 | superior in inhibiting SIK2 and SIK3 compared to PY1 | 
COc1ccc(N2C(=O)N(c3c(C)nn(C)c3C)Cc3cnc(Nc4ccc(C5CCN(C)CC5)cc4OC)nc32)nc1 [AA4, 7-((2-methoxy-4-(l-methylpiperidin-4-yl)phenyl)amino)-1-(5-methoxypyridin-2-yl)-3-(1,3,5-trimethyl-lH-pyrazol-4-yl)-3,4-dihydropyrimido[4,5-d]pyrimidin-2(1H)-one] | 5000 to 10000 | > 10000 |  |  |  |  |  |  |  |  | 
COc1ccc(N2C(=O)N(c3c(CF)csc3Cl)Cc3cnc(Nc4ccc(C5CCN(C)CC5)cc4OC)nc32)cc1 [AA10, 3-(2-chloro-4-(fluoromethyl)thiophen-3-yl)-7-((2-methoxy-4-(1-methylpiperidin-4-yl)phenyl)amino)-1-(4-methoxyphenyl)-3,4-dihydropyrimido[4,5-d]pyrimidin-2(1H)-one] | 50 to 100 | 100 to 200 | 5.82 to 6.00 |  | 5.82 to 6.00 |  | 5.82 to 6.00 |  |  |  | 
COCCN1C(=O)N(c2c(CF)csc2Cl)Cc2cnc(Nc3ccc(C4CCN(C)CC4)cc3OC)nc21 [AA12, 3-(2-chloro-4-(fluoromethyl)thiophen-3-yl)-7-((2-methoxy-4-(1-methylpiperidin-4-yl)phenyl)amino)-1-(2-methoxyethyl)-3,4-dihydropyrimido[4,5-d]pyrimidin-2(1H)-one] | < 50 | < 50 | < 5.82 |  |  |  | 5.82 to 6.00 |  | superior in inhibiting SIK2 and SIK3 compared to PY1 | superior in inhibiting SIK2 and SIK3 compared to PY1 | increased selectively towards SIK3 over SIK2
